In general, IC50 refers to the midpoint of a concentration-inhibition curve. The term GI50 denotes the concentration at which growth is held to half of that of the control. What is called EC50 is the concentration at which the effect is half-maximal. Low readings indicate greater potency, high ones weaker potency.

In brackets after ≈: the same amount, converted by molar mass.

Test [1] has as its target T1, Acetylcholinesterase (Homo sapiens, UniProt P22303). As to the kind of experiment: Inhibition of AChE (unknown origin).
A further test concerns the target Cholinesterase (Homo sapiens, UniProt P06276). The test is described as follows: Inhibition of human BChE using butyrylthiocholine iodide as substrate incubated for 15 mins by spectrophotometric Ellman's method.
The subject of the next test is MIA PaCa-2. The test is described as follows: Growth inhibition of human MIA PaCa-2 cells measured for 48 hrs by SRB assay. The test is classed as functional.
Test [2] deals with Staphylococcus epidermidis. As to the kind of experiment: Antimicrobial activity against Staphylococcus epidermidis ATCC 12228 assessed as reduction in bacterial growth incubated for 24 hrs by Mueller-Hinton agar based analysis. The test is classed as functional.
For another test, the system named is Pseudomonas aeruginosa. As to the kind of experiment: Antibacterial activity against Pseudomonas aeruginosa ATCC 15442 assessed as reduction in bacterial growth incubated for 24 hrs by Mueller-Hinton agar based analysis. In kind it is functional.
For test [3], the system named is Staphylococcus aureus. As to the kind of experiment: Antimicrobial activity against Staphylococcus aureus […] assessed as reduction in bacterial growth incubated for 24 hrs by Mueller-Hinton agar based analysis. The test is classed as functional.
The test system of test [4] is Escherichia coli. As to the kind of experiment: Antibacterial activity against Escherichia coli assessed as reduction in bacterial growth incubated for 24 hrs by Mueller-Hinton agar based analysis. In kind it is functional.
The nature of test [5]: Antioxidant activity assessed as DPPH radical scavenging activity incubated for 20 mins by spectrophotometric method. The test is classed as functional.
Another test has as its system Phytophthora capsici. As to the kind of experiment: Antifungal activity against Phytophthora capsici. The test is classed as functional, organism-based.
For test [6], the system named is Staphylococcus aureus. The test is described as follows: Antibacterial activity against Staphylococcus aureus ATCC 25923 assessed as zone of inhibition by agar diffusion method. In kind it is functional. Background: In agar diffusion tests the substance spreads into inoculated agar from a disc or well.
The test system of another test is Proteus vulgaris. As to the kind of experiment: Antimicrobial activity against Proteus vulgaris NCIM 2813 assessed as zone of inhibition incubated for 24 hrs by agar diffusion method. The test is classed as functional.
In a further test the test system is Bacillus subtilis. The test is described as follows: Antibacterial activity against Bacillus subtilis assessed as zone of inhibition. The test is classed as functional.
Test [7] has as its system Escherichia coli. As to the kind of experiment: microbe, parasite or virus in culture. The note with it: ATCC 25922, 24 h.
Test [8] has as its system Salmonella typhimurium. As to the kind of experiment: Antibacterial activity against Salmonella typhimurium DT104 assessed as inhibition of bacterial growth incubated for 18 hrs by CLSI protocol based microbroth dilution method. In kind it is functional, Salmonella enterica subsp. enterica serovar Typhimurium. The note with it: Salmonella enterica. (In general: In broth dilution the organism is exposed to a series of concentrations in liquid medium.)

Another test concerns the target Mushroom tyrosinase (Agaricus bisporus, UniProt O42713+Q00024+C7FF04+C7FF05). The test is described as follows: Inhibition of mushroom tyrosinase using L-DOPA as substrate by spectrophotometric analysis. The test is classed as protein assay.
For test [9], the system named is Clostridium perfringens. As to the kind of experiment: Antibacterial activity against Clostridium perfringens assessed as reduction in bacterial growth inhibition. In kind it is functional.
Test [10] relates to Escherichia coli. As to the kind of experiment: Antibacterial activity against Escherichia coli assessed as reduction in bacterial growth inhibition. In kind it is functional.
The test system of another test is Salmonella enteritidis. The test is described as follows: Antibacterial activity against Salmonella enterica subsp. enterica serovar Enteritidis assessed as reduction in bacterial growth inhibition. In kind it is functional.
Test [11] has as its system Salmonella typhimurium. As to the kind of experiment: Antibacterial activity against Salmonella typhimurium DT104 assessed as reduction in bacterial growth inhibition. The test is classed as functional, Salmonella enterica subsp. enterica serovar Typhimurium.
Test [12] deals with Clostridium perfringens. As to the kind of experiment: Antibacterial activity against Clostridium perfringens assessed as bacterial growth inhibition after 24 hrs by microdilution method. The test is classed as functional.
The target in test [13] is T1, Acetylcholinesterase. The test is described as follows: Inhibition of AChE (unknown origin) using acetylthiocholine iodide as substrate by Ellman's method.
Another test has as its system Helicobacter pylori. As to the kind of experiment: Antibacterial activity against Helicobacter pylori assessed as reduction in bacterial growth incubated for 24 hrs by broth micro-dilution method. In kind it is functional.

Sequence of Cholinesterase (P06276 whole entry): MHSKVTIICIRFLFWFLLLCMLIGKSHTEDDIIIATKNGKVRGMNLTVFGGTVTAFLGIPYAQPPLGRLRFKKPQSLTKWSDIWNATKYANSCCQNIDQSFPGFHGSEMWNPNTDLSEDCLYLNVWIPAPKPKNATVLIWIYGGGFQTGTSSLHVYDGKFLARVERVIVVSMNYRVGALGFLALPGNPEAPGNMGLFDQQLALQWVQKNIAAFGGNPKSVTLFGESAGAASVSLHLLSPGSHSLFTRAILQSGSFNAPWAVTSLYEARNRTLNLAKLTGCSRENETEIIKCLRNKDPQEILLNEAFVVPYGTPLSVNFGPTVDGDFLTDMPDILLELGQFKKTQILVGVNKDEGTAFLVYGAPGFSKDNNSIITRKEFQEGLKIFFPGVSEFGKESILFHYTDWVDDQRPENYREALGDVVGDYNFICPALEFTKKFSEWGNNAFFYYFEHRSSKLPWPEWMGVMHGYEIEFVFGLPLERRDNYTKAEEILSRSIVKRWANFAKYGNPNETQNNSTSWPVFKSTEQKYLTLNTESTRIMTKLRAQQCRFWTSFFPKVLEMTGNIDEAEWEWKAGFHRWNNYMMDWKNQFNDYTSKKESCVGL
T1 sequence (P22303 whole entry): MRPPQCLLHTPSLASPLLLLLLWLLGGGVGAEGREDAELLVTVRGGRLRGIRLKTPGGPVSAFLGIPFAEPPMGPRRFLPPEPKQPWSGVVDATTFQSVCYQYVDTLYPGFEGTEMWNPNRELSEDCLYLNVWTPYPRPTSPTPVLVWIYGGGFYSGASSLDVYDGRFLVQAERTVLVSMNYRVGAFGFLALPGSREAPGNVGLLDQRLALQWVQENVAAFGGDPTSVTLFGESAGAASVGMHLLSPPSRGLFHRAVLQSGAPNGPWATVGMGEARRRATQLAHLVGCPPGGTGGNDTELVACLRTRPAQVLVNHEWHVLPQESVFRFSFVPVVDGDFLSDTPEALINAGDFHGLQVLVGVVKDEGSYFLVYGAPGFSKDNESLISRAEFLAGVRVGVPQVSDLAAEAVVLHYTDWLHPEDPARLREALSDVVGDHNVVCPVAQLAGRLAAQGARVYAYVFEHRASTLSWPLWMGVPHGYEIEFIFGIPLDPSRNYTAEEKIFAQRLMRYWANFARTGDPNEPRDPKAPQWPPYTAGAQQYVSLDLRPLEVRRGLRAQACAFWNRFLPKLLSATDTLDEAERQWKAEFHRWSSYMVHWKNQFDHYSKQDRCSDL

Take `Cc1ccc(C(C)C)cc1OCC(=O)NCCN1CCOCC1`: the IC50 against Acetylcholinesterase [1] was found to be 1930 nM; at Cholinesterase it was 50 nM. `Cc1ccc(S(=O)(=O)N/N=C/c2c(C(C)C)ccc(C)c2O)cc1`: the GI50 in the test with MIA PaCa-2 came to 10 µg/mL (≈ 28.9 µM). On to `Cc1ccc(C(C)C)cc1OC(=O)[C@@H]1CSC(=O)N1`, for which the MIC (in test [2]; in the test on Pseudomonas aeruginosa; in the test on Staphylococcus aureus [3]; with Escherichia coli [4]) was 10 µg/mL (≈ 35.8 µM) throughout. With `Cc1ccc(C(C)C)c(/C=N/Nc2cc(Cl)ncn2)c1O`, halving of growth in the test with MIA PaCa-2 (GI50) required 80 µg/mL (≈ 262 µM).

As to `Cc1cc(Cc2cc(C)c(O)cc2C(C)C)c(C(C)C)cc1O`, in test [5], the IC50 stood at 122 µg/mL (≈ 390 µM). As for `Cc1ccc(C(C)C)cc1OCC(=O)NCc1ccc2c(c1)OCO2`, the IC50 against Acetylcholinesterase [1] is 1930 nM; at Cholinesterase, 50 nM. For `CCN(CC)C(=O)COc1cc(C(C)C)ccc1C` the same measures were 1930 nM and 50 nM. For the compound `Cc1ccc(C(C)C)cc1OS(=O)(=O)c1cccs1`, the EC50 with Phytophthora capsici is 0.06124 µg/mL (≈ 0.207 µM). Take `Cc1ccc(C(C)C)cc1OCC(=O)Nc1cccc(Cl)c1`: the figures for the “inhibition zone (IZ)” value in the test with Staphylococcus aureus [6], with Proteus vulgaris and in the test with Bacillus subtilis were 17 mm, 16 mm and 21 mm, respectively. As for `Cc1ccc(C(C)C)cc1OC(=O)c1ccccc1`, in the test on Escherichia coli [7], the MIC was determined as 11.7 µg/mL (≈ 46 µM). The same measure, in the same setting: in the case of `C/C=C/C(=O)Oc1cc(C(C)C)ccc1C` it was 11.7 µg/mL (≈ 53.6 µM). On to `Cc1ccc(C(C)C)cc1OCC(=O)O`, for which, in the test with Salmonella typhimurium [8], the MIC is 0.1 µg/mL (≈ 0.48 µM). At Mushroom tyrosinase, `Cc1ccc(C(C)C)cc1OC(=O)COC(=O)c1cccc(O)c1` yielded a concentration for half-maximal inhibition (IC50) of 14900 nM.

In the test on Escherichia coli [7], `Cc1ccc(C(C)C)cc1OC(=O)Cc1ccccc1` showed an MIC of 11.7 µg/mL (≈ 43.6 µM). Turning to `CCCCCCCCCCCC(=O)Oc1cc(C(C)C)ccc1C`, the MIC in the test on Clostridium perfringens [9] is listed as less than 10 %v/v; in the test with Escherichia coli [10], more than 10 %v/v; in the test with Salmonella enteritidis, more than 10 %v/v; in the test with Salmonella typhimurium [11], more than 10 %v/v. On to `Cc1ccc(C(C)C)cc1OCC(=O)N(C(C)C)C(C)C`, for which the half-maximal inhibitory concentration (IC50) against Acetylcholinesterase [1] worked out at 1930 nM; on Cholinesterase, 50 nM. For `COc1ccc(CCNC(=O)COc2cc(C(C)C)ccc2C)cc1OC` the same measures were 1930 nM and 50 nM. Take `Cc1ccc(C(C)C)c(/C=N/Nc2ccc(Cl)nn2)c1O`: in the test with MIA PaCa-2, the 50% growth inhibitory concentration (GI50) was determined as 80 µg/mL (≈ 262 µM). Turning to `Cc1ccc(C(C)C)cc1OCC(=O)NCCN1CCN(C)CC1`, the results for the IC50 against Acetylcholinesterase [1] and against Cholinesterase were 1930 nM and 50 nM, respectively.

Turning to `CCCCCCCNC(=O)COc1cc(C(C)C)ccc1C`, the figures for the “inhibition zone (IZ)” value with Proteus vulgaris and in the test with Bacillus subtilis were 7 mm and 6 mm, respectively.

For `Cc1ccc(C(C)C)cc1OCCn1c([N+](=O)[O-])cnc1C`, in the test with Clostridium perfringens [12], the MIC is 1 µg/mL (≈ 3.3 µM). With `Cc1ccc(C(C)C)cc1OCC(=O)NCCN1CCCC1`, the IC50 against Acetylcholinesterase [1] came to 1930 nM; against Cholinesterase, 50 nM.

Take `CCC(C)(NC(=O)c1cc(Cl)c(C)c(Cl)c1)C(=O)CCl` (centres undefined) [ZOXAMIDE]: the EC50 in the test on Phytophthora capsici was 0.0268 µg/mL (≈ 0.0796 µM). As to `C[Se]CC[C@H](NC(C)=O)C(=O)Oc1cc(C(C)C)ccc1C`, the MIC in test [2] came out at 5 µg/mL (≈ 13.5 µM); with Pseudomonas aeruginosa, 5 µg/mL (≈ 13.5 µM); in the test on Staphylococcus aureus [3] it was 10 µg/mL (≈ 27 µM); in the test on Escherichia coli [4], 5 µg/mL (≈ 13.5 µM).

The compound `C=CCNCC(O)COc1cc(C(C)C)ccc1C` (centres undefined) gave a concentration for half-maximal inhibition (IC50) on Acetylcholinesterase [13] of 136 nM. `Cc1ccc(C(C)C)cc1OCC(=O)Nc1ccccc1`: the “inhibition zone (IZ)” value with Bacillus subtilis came to 8 mm. As for `Cc1ccc(C(C)C)cc1OCC(=O)N1CCCCC1`, the half-inhibitory concentration (IC50) against Acetylcholinesterase [1] amounted to 1930 nM; against Cholinesterase, 50 nM.

On Acetylcholinesterase [13], `Cc1ccc(C(C)C)cc1OCC(O)CNCc1cccnc1` (centres undefined) returned an IC50 of 136 nM. In the case of `Cc1cccc(COc2cc(C(C)C)ccc2C)c1`, in the test with Helicobacter pylori, the MIC stood at 2 µg/mL (≈ 7.86 µM). Consider `Cc1ccc(C(C)C)cc1OC(=O)COC(=O)c1ccc(O)cc1O`, for which the IC50 against Mushroom tyrosinase amounted to 6700 nM. Regarding `CCN(CC)CC(O)COc1cc(C(C)C)ccc1C` (centres undefined), the IC50 at Acetylcholinesterase [13] came out at 136 nM.

In the case of `Cc1ccc(C(C)C)cc1OCC(=O)NCCNc1cccc2cccnc12`, the IC50 was found to be 1930 nM on Acetylcholinesterase [1] and 50 nM against Cholinesterase. In the test with Phytophthora capsici, `CCS(=O)(=O)Oc1cc(C(C)C)ccc1C` displayed an EC50 of 0.0666 µg/mL (≈ 0.275 µM).

The values above are taken from ChEMBL document CHEMBL5576070, “The recent discovery of a promising pharmacological scaffold derived from carvacrol: A review” (Bioorg Med Chem Lett, 2024).
